Source: paper PMC10458893, “Design of Protegrin-1 Analogs with Improved Antibacterial Selectivity” (Pharmaceutics, 2023)
≈ marks a conversion by molar mass, not a printed value. Like-named read-outs stand apart in the source and are kept apart here. Positions of bridges follow the written chain, without caps; N, C: chain ends. Residues, ends and D or L forms follow the SMILES beside them.

Assays:
[1] = tested on: Acinetobacter baumannii (strain XDR CI 2675); assay type: cell-based
Description: (§1) The antimicrobial activity of the peptides was determined using two-fold serial dilutions in sterile 96-well flat-bottom polystyrene microplates (Eppendorf, Hamburg, Germany) (Cat. No. 0030730011), as previously described. The following strains of bacteria were used: E. coli ATCC 25922, E. coli ML35p (ATCC collection), E. coli BW 25113 (Keio collection), Pseudomonas aeruginosa PAO1 (ATCC collection), P. aeruginosa ATCC 27853, Klebsiella pneumoniae ATCC 700603, Staphylococcus aureus 209P (ATCC collection), S. aureus ATCC 29213, and Micrococcus luteus B-1314 (VKM collection). Acinetobacter baumannii (strain XDR CI 2675) was provided by the I.M. Sechenov First Moscow State Medical University hospital. After a 24 h incubation period, the metabolic activity of the bacteria was assessed by adding 20 µL of a redox indicator, resazurin (Sigma-Aldrich, St. Louis, MO, USA), at a concentration of 0.1 mg/mL, to the wells. The plate was then incubated for a further two hours. The minimum inhibitory concentration (MIC) was determined as the lowest concentration of the peptide at which no color change in the resazurin indicator was observed. The results were presented as median values, which were determined based on at least three independent experiments carried out in triplicate.

E. coli ATCC 25922 = assay type: cell-based; settings: ATCC 25922, 24 h
Description: as §1

E. coli BW 25113 = assay type: cell-based; settings: two-fold serial dilutions, 24 h incubation, resazurin read-out; median of at least three independent experiments in triplicate
Description: as §1

E. coli ML35p = assay type: cell-based
Description: as §1

all the test strains = assay type: cell-based; settings: geometric mean over the 10 test strains
Description: as §1

P. aeruginosa ATCC 27853 = assay type: cell-based, Pseudomonas aeruginosa; settings: ATCC 27853, 24 h
Description: as §1

P. aeruginosa PAO1 = assay type: cell-based, Pseudomonas aeruginosa; settings: PAO1, 24 h
Description: as §1

[2] = tested on: K. pneumoniae ATCC 700603; assay type: cell-based, Klebsiella pneumoniae; settings: ATCC 700603, 24 h
Description: as §1

S. aureus 209P = assay type: cell-based, Staphylococcus aureus; settings: 24 h
Description: as §1

S. aureus ATCC 29213 = assay type: cell-based, Staphylococcus aureus; settings: ATCC 29213, 24 h
Description: as §1

M. luteus B-1314 = assay type: cell-based, Micrococcus luteus; settings: B-1314, 24 h
Description: as §1

[3] = tested on: freshly isolated human erythrocytes (hRBCs); experiment: Hemolysis assay (hemoglobin release); assay type: cell-based; settings: red cells of human, 64
From the text: To assess the hemolytic activity of the compounds, freshly isolated human erythrocytes (hRBCs) were used according to the methodology described in a previous study. Melittin was used as a positive peptide control that induces significant hemolysis. Isotonic phosphate buffer (PBS) served as a negative control, while 0.1% Triton X-100 solution was used as a control for complete hemolysis.

[4] = tested on: human keratinocyte cell line (HaCaT); experiment: Cytotoxicity MTT assay; assay type: cell-based; settings: 18 h, 128
Description: In order to evaluate the cytotoxicity of the peptides against a human keratinocyte cell line (HaCaT, Cat. No. 300493) (Cell Lines Service, Köln, Germany), the colorimetric 3-(4,5-dimethylthiazol-2-yl)-2,5-diphenyltetrazolium bromide (MTT) dye reduction assay was performed, as described in a previous publication. Wells containing no peptide were used as a 100% survival control. Each peptide was tested in two separate experiments to ensure the reliability of the results.

[5] = strain XDR CI 2675, two-fold serial dilutions, 24 h incubation, resazurin read-out, median of at least three independent experiments in triplicate
[6] = two-fold serial dilutions, 24 h incubation, resazurin read-out, median of at least three independent experiments in triplicate

| SMILES | MIC, A. baumannii ([1]; strain XDR CI 2675, 24 h) | MIC, E. coli ATCC 25922 (E. coli ATCC 25922) | MIC, E. coli BW 25113 (E. coli BW 25113) | MIC, E. coli ML35p (E. coli ML35p; ML35p, 24 h) | MIC (GM), geometric mean of the peptide's MICs against all the test strains (all the test strains) | MIC, P. aeruginosa ATCC 27853 (P. aeruginosa ATCC 27853) | MIC, P. aeruginosa PAO1 (P. aeruginosa PAO1) | MIC, K. pneumoniae ATCC 700603 [2] | MIC, S. aureus 209P (S. aureus 209P) | MIC, S. aureus ATCC 29213 (S. aureus ATCC 29213) | MIC, M. luteus B-1314 (M. luteus B-1314) | Hemolytic activity, % (64 μM) [3] | Cell Viability, % (128 μM) [4] | MIC, A. baumannii [1, 5] | MIC, E. coli ML35p (E. coli ML35p; [6]) |
| --- | --- | --- | --- | --- | --- | --- | --- | --- | --- | --- | --- | --- | --- | --- | --- |
| CC(C)[C@@H]1NC(=O)[C@@H]2CSSC[C@H](NC(=O)[C@H](Cc3ccc(O)cc3)NC(=O)[C@@H](NC(=O)[C@H](C)NC(=O)[C@H](CCCNC(=N)N)NC(=O)CNC(=O)CNC(=O)[C@@H](N)CCCNC(=N)N)CSSC[C@@H](C(=O)N[C@@H](CCCNC(=N)N)C(=O)NCC(=O)N[C@@H](CCCNC(=N)N)C(=O)O)NC1=O)C(=O)N[C@@H](CCCNC(=N)N)C(=O)N[C@@H](CCCNC(=N)N)C(=O)N[C@@H](CCCNC(=N)N)C(=O)N[C@@H](Cc1ccccc1)C(=O)N2 [[L5A,V16R]] (H-RGGRACYCRRRFCVCRGR-OH; disulfide 6-15, 8-13; N-terminus and C-terminus assumed) | 0.5 µM (≈ 1.09 µg/mL) | 2 µM (≈ 4.34 µg/mL) | 2 µM (≈ 4.34 µg/mL) | 1 µM (≈ 2.17 µg/mL) | 4.9 µM | 4 µM (≈ 8.69 µg/mL) | 8 µM (≈ 17.4 µg/mL) | 32 µM (≈ 69.5 µg/mL) | 32 µM (≈ 69.5 µg/mL) | 32 µM (≈ 69.5 µg/mL) | 4 µM (≈ 8.69 µg/mL) | 1.0 (±0.01) % | 94.1 (± 3.51) % |  |  |
| CC(C)[C@H](NC(=O)[C@@H]1CSSC[C@H](NC(=O)[C@H](C)NC(=O)[C@H](CCCNC(=N)N)NC(=O)CNC(=O)CNC(=O)[C@@H](N)CCCNC(=N)N)C(=O)N[C@@H](Cc2ccc(O)cc2)C(=O)N[C@H]2CSSC[C@H](NC(=O)[C@H](Cc3ccccc3)NC(=O)[C@H](CCCNC(=N)N)NC(=O)[C@H](CCCNC(=N)N)NC(=O)[C@H](CCCNC(=N)N)NC2=O)C(=O)N[C@@H](C(C)C)C(=O)N1)C(=O)NCC(=O)N[C@@H](CCCNC(=N)N)C(=O)O [[L5A]] (H-RGGRACYCRRRFCVCVGR-OH; disulfide 6-15, 8-13; N-terminus and C-terminus assumed) |  | 0.5 µM (≈ 1.06 µg/mL) | 0.125 µM (≈ 0.264 µg/mL) |  | 0.4 µM | 0.25 µM (≈ 0.529 µg/mL) | 0.5 µM (≈ 1.06 µg/mL) | 1 µM (≈ 2.11 µg/mL) | 1 µM (≈ 2.11 µg/mL) | 1 µM (≈ 2.11 µg/mL) | 0.5 µM (≈ 1.06 µg/mL) | 40.3 (±6.95) % | 10.0 (±3.27) % | 0.25 µM (≈ 0.529 µg/mL) | 0.25 µM (≈ 0.529 µg/mL) |
| CC(C)[C@H](NC(=O)[C@@H]1CSSC[C@H](NC(=O)[C@H](CCCNC(=N)N)NC(=O)[C@H](CCCNC(=N)N)NC(=O)CNC(=O)CNC(=O)[C@@H](N)CCCNC(=N)N)C(=O)N[C@@H](Cc2ccc(O)cc2)C(=O)N[C@H]2CSSC[C@H](NC(=O)[C@H](Cc3ccccc3)NC(=O)[C@H](CCCNC(=N)N)NC(=O)[C@H](CCCNC(=N)N)NC(=O)[C@H](CCCNC(=N)N)NC2=O)C(=O)N[C@@H](C(C)C)C(=O)N1)C(=O)NCC(=O)N[C@@H](CCCNC(=N)N)C(=O)O [[L5R]] (H-RGGRRCYCRRRFCVCVGR-OH; disulfide 6-15, 8-13; N-terminus and C-terminus assumed) |  | 1 µM (≈ 2.2 µg/mL) | 0.25 µM (≈ 0.55 µg/mL) |  | 1.2 µM | 1 µM (≈ 2.2 µg/mL) | 1 µM (≈ 2.2 µg/mL) | 8 µM (≈ 17.6 µg/mL) | 4 µM (≈ 8.8 µg/mL) | 4 µM (≈ 8.8 µg/mL) | 1 µM (≈ 2.2 µg/mL) | 14.1 (±2.13) % | 7.7 (± 4.64) % | 0.5 µM (≈ 1.1 µg/mL) | 0.5 µM (≈ 1.1 µg/mL) |
| CC(C)C[C@H](NC(=O)[C@H](CCCNC(=N)N)NC(=O)CNC(=O)CNC(=O)[C@@H](N)CCCNC(=N)N)C(=O)N[C@H]1CSSC[C@@H](C(=O)N[C@@H](CCCNC(=N)N)C(=O)NCC(=O)N[C@@H](CCCNC(=N)N)C(=O)O)NC(=O)[C@H](C)NC(=O)[C@@H]2CSSC[C@H](NC(=O)[C@H](Cc3ccc(O)cc3)NC1=O)C(=O)N[C@@H](CCCNC(=N)N)C(=O)N[C@@H](CCCNC(=N)N)C(=O)N[C@@H](CCCNC(=N)N)C(=O)N[C@@H](Cc1ccccc1)C(=O)N2 [[V14A,V16R]] (H-RGGRLCYCRRRFCACRGR-OH; disulfide 6-15, 8-13; N-terminus and C-terminus assumed) | 0.5 µM (≈ 1.09 µg/mL) | 2 µM (≈ 4.37 µg/mL) | 2 µM (≈ 4.37 µg/mL) | 1 µM (≈ 2.19 µg/mL) | 4.9 µM | 4 µM (≈ 8.74 µg/mL) | 8 µM (≈ 17.5 µg/mL) | 32 µM (≈ 69.9 µg/mL) | 32 µM (≈ 69.9 µg/mL) | 32 µM (≈ 69.9 µg/mL) | 4 µM (≈ 8.74 µg/mL) | 1.1 (±0.15) % | 110.6 (± 6.68) % |  |  |
| CC(C)C[C@H](NC(=O)[C@H](CCCNC(=N)N)NC(=O)CNC(=O)CNC(=O)[C@@H](N)CCCNC(=N)N)C(=O)N[C@H]1CSSC[C@@H](C(=O)N[C@H](C(=O)NCC(=O)N[C@@H](CCCNC(=N)N)C(=O)O)C(C)C)NC(=O)[C@H](C)NC(=O)[C@@H]2CSSC[C@H](NC(=O)[C@H](Cc3ccc(O)cc3)NC1=O)C(=O)N[C@@H](CCCNC(=N)N)C(=O)N[C@@H](CCCNC(=N)N)C(=O)N[C@@H](CCCNC(=N)N)C(=O)N[C@@H](Cc1ccccc1)C(=O)N2 [[V14A]] (H-RGGRLCYCRRRFCACVGR-OH; disulfide 6-15, 8-13; N-terminus and C-terminus assumed) | 0.125 µM (≈ 0.266 µg/mL) | 0.5 µM (≈ 1.06 µg/mL) | 0.125 µM (≈ 0.266 µg/mL) | 0.25 µM (≈ 0.532 µg/mL) | 0.4 µM | 0.25 µM (≈ 0.532 µg/mL) | 0.5 µM (≈ 1.06 µg/mL) | 1 µM (≈ 2.13 µg/mL) | 1 µM (≈ 2.13 µg/mL) | 1 µM (≈ 2.13 µg/mL) | 0.5 µM (≈ 1.06 µg/mL) | 39.0 (±10.2) % | 12.05 (± 2.8) % |  |  |
| CC(C)C[C@H](NC(=O)[C@H](CCCNC(=N)N)NC(=O)CNC(=O)CNC(=O)[C@@H](N)CCCNC(=N)N)C(=O)N[C@H]1CSSC[C@@H](C(=O)N[C@H](C(=O)NCC(=O)N[C@@H](CCCNC(=N)N)C(=O)O)C(C)C)NC(=O)[C@H](CCCNC(=N)N)NC(=O)[C@@H]2CSSC[C@H](NC(=O)[C@H](Cc3ccc(O)cc3)NC1=O)C(=O)N[C@@H](CCCNC(=N)N)C(=O)N[C@@H](CCCNC(=N)N)C(=O)N[C@@H](CCCNC(=N)N)C(=O)N[C@@H](Cc1ccccc1)C(=O)N2 [[V14R]] (H-RGGRLCYCRRRFCRCVGR-OH; disulfide 6-15, 8-13; N-terminus and C-terminus assumed) | 2 µM (≈ 4.43 µg/mL) | 4 µM (≈ 8.85 µg/mL) | 2 µM (≈ 4.43 µg/mL) | 4 µM (≈ 8.85 µg/mL) | 9.8 µM | >32 µM | 32 µM (≈ 70.8 µg/mL) | 32 µM (≈ 70.8 µg/mL) | 32 µM (≈ 70.8 µg/mL) | 32 µM (≈ 70.8 µg/mL) | 2 µM (≈ 4.43 µg/mL) | 1.2 (±0.43) % | 98.6 (± 6.0) % |  |  |
